Laboratory results published in ChEMBL document CHEMBL4392825, “New SIRT2 inhibitors: Histidine-based bleomycin spin-off” (Bioorg Med Chem, 2019).

How the values were obtained:
[1] = biological target: T1, NAD-dependent protein deacetylase sirtuin-2 (Homo sapiens, UniProt Q8IXJ6); experiment: Inhibition of recombinant SIRT2 (unknown origin) using FAM-RHKK(Ac)LM as substrate measured after 60 mins by electrophoretic mobility shift assay
T1 sequence (Q8IXJ6 whole entry): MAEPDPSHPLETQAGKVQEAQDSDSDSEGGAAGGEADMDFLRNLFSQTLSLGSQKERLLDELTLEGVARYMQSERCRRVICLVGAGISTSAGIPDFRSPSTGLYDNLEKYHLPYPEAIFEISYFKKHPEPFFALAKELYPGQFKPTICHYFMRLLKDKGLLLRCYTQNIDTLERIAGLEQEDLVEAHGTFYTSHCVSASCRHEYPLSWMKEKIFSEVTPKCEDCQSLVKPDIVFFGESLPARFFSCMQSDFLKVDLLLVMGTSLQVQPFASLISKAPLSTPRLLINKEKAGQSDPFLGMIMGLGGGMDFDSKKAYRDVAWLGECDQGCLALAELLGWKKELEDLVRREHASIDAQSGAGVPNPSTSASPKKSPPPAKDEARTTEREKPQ

[2] = biological target: T2, NAD-dependent protein deacetylase sirtuin-1 (Homo sapiens) (UniProt Q96EB6); experiment: Inhibition of recombinant SIRT1 (unknown origin) assessed as residual activity using RHKK(Ac)-MCA as substrate measured after 60 mins by fluorescence assay relative to control; design: concentration or dose not given beside the values
T2 sequence (whole entry): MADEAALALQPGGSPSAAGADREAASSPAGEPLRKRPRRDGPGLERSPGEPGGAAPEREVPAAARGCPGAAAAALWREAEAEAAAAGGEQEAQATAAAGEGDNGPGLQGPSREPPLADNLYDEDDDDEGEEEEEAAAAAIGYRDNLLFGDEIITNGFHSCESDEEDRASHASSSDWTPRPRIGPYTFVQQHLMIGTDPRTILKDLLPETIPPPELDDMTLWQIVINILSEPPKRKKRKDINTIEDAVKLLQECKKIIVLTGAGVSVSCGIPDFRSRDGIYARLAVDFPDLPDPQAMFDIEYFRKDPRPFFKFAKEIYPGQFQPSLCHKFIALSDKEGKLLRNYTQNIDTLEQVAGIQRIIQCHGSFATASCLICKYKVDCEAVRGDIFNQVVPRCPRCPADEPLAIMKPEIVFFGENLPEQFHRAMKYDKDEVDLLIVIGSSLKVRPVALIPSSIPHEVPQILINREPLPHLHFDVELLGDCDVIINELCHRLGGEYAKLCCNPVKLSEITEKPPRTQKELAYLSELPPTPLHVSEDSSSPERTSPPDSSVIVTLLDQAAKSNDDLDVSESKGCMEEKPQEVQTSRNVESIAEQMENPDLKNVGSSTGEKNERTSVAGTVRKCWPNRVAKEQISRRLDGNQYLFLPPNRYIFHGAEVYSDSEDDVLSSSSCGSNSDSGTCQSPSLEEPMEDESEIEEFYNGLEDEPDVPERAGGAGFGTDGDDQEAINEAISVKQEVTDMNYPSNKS

[3] = biological target: T3, NAD-dependent protein deacetylase sirtuin-3, mitochondrial (Homo sapiens) (UniProt Q9NTG7); experiment: Inhibition of recombinant SIRT3 (unknown origin) assessed as residual activity using VSTPVK(Ac)-MCA as substrate measured after 60 mins by fluorescence assay relative to control; design: concentration or dose not given beside the values
T3 sequence (whole entry): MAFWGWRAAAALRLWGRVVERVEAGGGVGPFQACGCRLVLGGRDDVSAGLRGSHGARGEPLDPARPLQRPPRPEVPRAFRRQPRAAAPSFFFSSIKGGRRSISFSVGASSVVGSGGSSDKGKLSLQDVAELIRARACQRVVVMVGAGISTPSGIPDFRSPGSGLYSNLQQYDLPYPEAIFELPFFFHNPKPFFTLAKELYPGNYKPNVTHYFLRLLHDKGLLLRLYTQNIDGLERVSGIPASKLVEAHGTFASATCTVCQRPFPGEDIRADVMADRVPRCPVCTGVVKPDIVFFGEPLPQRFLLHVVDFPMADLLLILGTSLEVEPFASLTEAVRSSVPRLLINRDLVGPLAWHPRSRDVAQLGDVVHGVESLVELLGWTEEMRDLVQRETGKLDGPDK

[4] = biological target: T1, NAD-dependent protein deacetylase sirtuin-2; experiment: Inhibition of recombinant SIRT2 (unknown origin) using RHKK(Ac)-MCA as substrate measured after 60 mins by fluorescence assay
[5] = tested on: MCF7; experiment: Cytotoxicity against human MCF7 cells assessed as reduction in cell viability measured after 4 days by MTT assay; format: functional, cell-based; conditions: MCF7, 96 h
[6] = tested on: K562; experiment: Cytotoxicity against human K562 cells assessed as reduction in cell viability measured after 1 day by MTT assay; format: functional, cell-based; conditions: K562, 24 h
[7] = tested on: MT2; experiment: Cytotoxicity against human MT2 cells assessed as reduction in cell viability measured after 1 day by MTT assay; format: cell-based; conditions: MT2, 24 h

SMILES	IC50 [1]	Activity [2]	Activity [3]	IC50 [4]	IC50 [5]	IC50 [6]	IC50 [7]
COC(=O)[C@H](Cc1cn(C(c2ccccc2)(c2ccccc2)c2ccccc2)cn1)NCc1ccc(N(C)C)cc1	11.8 µM	105%	81.7%		11.9 µM	10.4 µM	6.81 µM
COC(=O)[C@H](Cc1cn(C(c2ccccc2)(c2ccccc2)c2ccccc2)cn1)NCc1ccc(Br)nc1	5.9 µM	102%	71.9%		9.87 µM	5.35 µM	1.37 µM
COC(=O)[C@H](Cc1cn(C(c2ccccc2)(c2ccccc2)c2ccccc2)cn1)NCc1ccc2ccccc2n1	2.5 µM						
COC(=O)[C@H](Cc1cn(C(c2ccccc2)(c2ccccc2)c2ccccc2)cn1)NCc1ccc(Br)cn1	10.2 µM						
COC(=O)[C@H](Cc1cn(C(c2ccccc2)(c2ccccc2)c2ccccc2)cn1)NCc1cc(N(C)C)ccn1	1.7 µM			1.7 µM	0.77 µM	7.53 µM	3.53 µM
Cc1cc(C)nc(SCC(=O)Nc2ncc(Cc3cccc4ccccc34)s2)n1					13.7 µM	> 100 µM	> 100 µM
COC(=O)[C@H](Cc1cn(C(c2ccccc2)(c2ccccc2)c2ccccc2)cn1)NCc1ccncc1Br	6.7 µM						

Second part, led by results:

IC50 [1]	Activity [2]	Activity [3]	IC50 [4]	SMILES	IC50 [5]	IC50 [6]	IC50 [7]
7.5 µM				COC(=O)[C@H](Cc1cn(C(c2ccccc2)(c2ccccc2)c2ccccc2)cn1)NCc1cccc(Br)n1			
> 100 µM	116%	90.7%		COC(=O)[C@H](Cc1cn(C(c2ccccc2)(c2ccccc2)c2ccccc2)cn1)N(Cc1ccccc1)Cc1ccccc1			
			5.5 µM	COC(=O)[C@H](Cc1c[nH]cn1)NCc1cc(N(C)C)cc(CN[C@@H](Cc2cn(C(c3ccccc3)(c3ccccc3)c3ccccc3)cn2)C(=O)OC)n1	2.29 µM	6.51 µM	8.61 µM
20.4 µM				COC(=O)[C@H](Cc1cn(C(c2ccccc2)(c2ccccc2)c2ccccc2)cn1)NC(=O)c1ccccn1			
5.6 µM				COC(=O)[C@H](Cc1cn(C(c2ccccc2)(c2ccccc2)c2ccccc2)cn1)NCc1cccc(N(C)C)c1			
1.3 µM				CCN(CC)c1ccnc(CN[C@@H](Cc2cn(C(c3ccccc3)(c3ccccc3)c3ccccc3)cn2)C(=O)OC)c1	0.71 µM	6.27 µM	4.36 µM
16.4 µM				COC(=O)[C@H](Cc1cn(C(c2ccccc2)(c2ccccc2)c2ccccc2)cn1)NCc1ccccc1			
21.8 µM	96.5%	67.7%		COC(=O)[C@H](Cc1cn(C(c2ccccc2)(c2ccccc2)c2ccccc2)cn1)NCc1ccccn1	8.96 µM	6.36 µM	1.75 µM
3.3 µM				COC(=O)[C@H](Cc1cn(C(c2ccccc2)(c2ccccc2)c2ccccc2)cn1)NCc1cnc2ccccc2c1			
43 µM	95.9%	76.2%		COC(=O)[C@@H](N)Cc1cn(C(c2ccccc2)(c2ccccc2)c2ccccc2)cn1	49.1 µM	7.2 µM	3.13 µM
			8.8 µM	COC(=O)[C@H](Cc1cn(C(c2ccccc2)(c2ccccc2)c2ccccc2)cn1)NCc1cc(N(C)C)cc(CN[C@@H](Cc2cn(C(c3ccccc3)(c3ccccc3)c3ccccc3)cn2)C(=O)OC)n1	1.72 µM	7.91 µM	8.86 µM
